The text below walks through data of US20090029992A1, “SUBSTITUTED PYRAZOLE COMPOUNDS” (priority 2007, published 2009).

As a reminder, the IC50 is the concentration at which inhibition is half-maximal. The GI50 is the concentration giving 50% growth inhibition.

The target in one assay is T1, recombinant Aurora A (Homo sapiens, UniProt O14965).
T1 construct: purchased Upstate, Lake Placid, N.Y
T1 sequence (O14965 1-403): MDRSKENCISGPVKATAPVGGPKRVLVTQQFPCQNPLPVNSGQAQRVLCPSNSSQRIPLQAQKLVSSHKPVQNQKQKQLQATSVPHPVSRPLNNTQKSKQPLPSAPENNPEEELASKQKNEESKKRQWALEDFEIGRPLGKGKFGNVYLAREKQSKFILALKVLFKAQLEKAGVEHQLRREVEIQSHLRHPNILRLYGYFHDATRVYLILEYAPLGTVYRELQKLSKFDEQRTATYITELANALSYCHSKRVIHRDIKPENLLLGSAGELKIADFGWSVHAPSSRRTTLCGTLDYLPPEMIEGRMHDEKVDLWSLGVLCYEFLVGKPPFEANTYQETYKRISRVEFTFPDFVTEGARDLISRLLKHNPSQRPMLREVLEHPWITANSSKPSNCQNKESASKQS
The assay can be described thus: Aurora A (Aurora 2) inhibition assay, Z'-Lyte kinase assay. The class given is biochemical. To be noted: ATP 10 μM, 1 h. The protocol: Compounds were tested for their potency against recombinant Aurora A (Upstate, Lake Placid, N.Y.) using the PanVera Z′-Lyte kinase assay kit—Ser/Thr 1 peptide (Invitrogen, Carlsbad, Calif.). Assays were carried out in kinase assay buffer (50 mM HEPES, pH 7.5, 10 mM MgCl2, 5 mM EGTA, 0.05% Brij-35, 2 mM DTT). Test compounds were initially dissolved in DMSO at 100× the highest tested concentration, then serially diluted to 4× test concentrations in kinase assay buffer. Next, Aurora A (final concentration 200-500 ng/mL), Z′-Lyte Ser/Thr 1 peptide (final concentration 2 μM) and ATP (final concentration 10 μM) were added according to the manufacturer's instructions. Assays were carried out in half-area 96-well white polystyrene assay plates (Corning, Corning, N.Y.) in a final volume of 20 μl. The reaction was allowed to proceed for 1 h at room temperature in the dark, at which point the development reagent and stop reagent were added according to the manufacturer's instructions. Coumarin (Ex. 400 nm, Em. 465 nm) and fluorescein (Ex. 400 nm, Em. 565 nm) fluorescence values were measured on a SpectraFluor Plus plate reader (Tecan, Durham, N.C.). The emission ratio (coumarin/fluorescein) was determined and used to calculate the percent phosphorylation for each well. Wells containing substrate but no kinase and wells containing a phosphopeptide control were used to set 0% and 100% phosphorylation values, respectively. Typically 20-40% of the substrate was phosphorylated in wells without inhibitor. Dose-response curves of relative Aurora A activity vs. inhibitor concentration were plotted with Grafit (Erithacus Software, Horley, Surrey, UK).

Assay [1] has as its target T2, N-terminal His-tagged human Src (Homo sapiens, UniProt P12931).
T2 construct: His (N); purchased Upstate USA Inc, 706 Forest Street, Charlottesville, Va
Nature of the assay: Src kinase inhibition assay (33P-ATP filter assay). The assay is classed as biochemical. The protocol:
Compounds were assayed for Src kinase inhibitory activity using N-terminal His-tagged human Src (Upstate USA Inc, 706 Forest Street, Charlottesville, Va.). Serial dilutions of compound were assayed in a final reaction volume of 25 μL by incubating a solution of the above Src kinase (5-10 mU), 8 mM MOPS (3-(N-morpholino) propanesulfonic acid) pH 7.0, 0.2 mM EDTA (ethylenediamine tetracetic acid), 250 μM amino acid sequence KVEKIGEGTYGVVYK (Upstate USA Inc, 706 Forest Street, Charlottesville, Va.), and 10 mM magnesium acetate and [γ-^33P-ATP] (specific activity of about 500 cpm/μmol, concentration as required). The reaction was initiated by the addition of the magnesium acetate and [γ-^33P-ATP] mixture. After incubation for 40 minutes at room temperature, the reaction was stopped by the addition of 5 μL of a 3% phosphoric acid solution. A 10 μL aliquote of the reaction was then spotted onto a P30 filtermat (PerkinElmer, Wellesley, Mass.) and washed three times for five minutes in 75 mM phosphoric acid and once in methanol prior to drying and scintillation counting. Inhibition of Src activity was determined by comparison to assays that contained no inhibitor.

Assay [2] deals with T3, N-terminal His6-tagged recombinant human KDR, residues 790-end (Homo sapiens, UniProt P35968).
T3 construct: recombinant human KDR, residues 790-end; His6 (N); purchased Upstate USA Inc, 706 Forest Street, Charlottesville, Va
Nature of the assay: KDR kinase inhibition assay (33P-ATP filter assay). The assay is classed as biochemical. Summed up: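 Radiometric filter assay: reaction started with Mg acetate (10 mM)/[γ-33P]ATP mix, run 40 min at room temperature in 8 mM MOPS pH 7.0 with 0.2 mM EDTA, MBP substrate (0.33 mg/mL) and recombinant KDR 790-end (5-10 mU). Phosphate incorporation by scintillation counting of P30 filtermats, compared with uninhibited reactions.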

The test system of the next assay is HCT116 cells. Nature of the assay: Whole cell cytotoxicity assay, Sulforhodamine B. The assay is classed as cell-based. To be noted: Homo sapiens, HCT-116, HCT116, 96 hours incubation, SRB; for IC50: read-out: IC50 values in this assay (HCT116 cell growth). In a few lines:
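HCT116 cells (500/well) in DMEM/10% FBS/2 mM glutamine were preincubated 24 h, then exposed to compound for 96 h at 37 °C, 5% CO2, in duplicate. Cells were fixed with TCA and stained with sulforhodamine B (A570). GI50, TGI and LC50 were derived relative to a time-zero plate and an untreated control.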

Assay [3] deals with T4, N-terminal GST-tagged recombinant human Flt3, residues 564-end (Homo sapiens, UniProt P36888).
T4 construct: recombinant human Flt3, residues 564-end; GST (N); purchased Upstate USA Inc, 706 Forest Street, Charlottesville, Va
T4 sequence (P36888 564-993 limits assumed): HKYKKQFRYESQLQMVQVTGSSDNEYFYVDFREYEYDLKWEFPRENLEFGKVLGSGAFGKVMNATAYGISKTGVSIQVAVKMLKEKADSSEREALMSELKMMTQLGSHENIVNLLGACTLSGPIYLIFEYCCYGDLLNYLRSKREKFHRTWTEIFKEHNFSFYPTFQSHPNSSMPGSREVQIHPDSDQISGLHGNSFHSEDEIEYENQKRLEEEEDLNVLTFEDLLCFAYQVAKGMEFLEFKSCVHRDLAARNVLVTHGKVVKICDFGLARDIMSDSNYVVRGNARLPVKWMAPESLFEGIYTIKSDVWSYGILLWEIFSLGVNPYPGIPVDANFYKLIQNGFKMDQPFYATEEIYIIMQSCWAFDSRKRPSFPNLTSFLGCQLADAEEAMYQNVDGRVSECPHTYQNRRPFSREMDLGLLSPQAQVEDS
The assay can be described thus: Flt3 kinase inhibition assay (33P-ATP filter assay). The note with it: 40 minutes at room temperature. The assay is classed as biochemical. In a few lines: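 Serial compound dilutions incubated 40 min at room temperature with 5-10 mU Flt3 kinase, 50 μM peptide substrate and [γ-33P]ATP/10 mM magnesium acetate, pH 7.0. Phosphoric acid stop, filter capture and scintillation counting; activity compared with uninhibited reactions.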

Setting [4] is: group with IC50 greater than 100 nM.

T3 sequence (P35968 790-1356 limits assumed): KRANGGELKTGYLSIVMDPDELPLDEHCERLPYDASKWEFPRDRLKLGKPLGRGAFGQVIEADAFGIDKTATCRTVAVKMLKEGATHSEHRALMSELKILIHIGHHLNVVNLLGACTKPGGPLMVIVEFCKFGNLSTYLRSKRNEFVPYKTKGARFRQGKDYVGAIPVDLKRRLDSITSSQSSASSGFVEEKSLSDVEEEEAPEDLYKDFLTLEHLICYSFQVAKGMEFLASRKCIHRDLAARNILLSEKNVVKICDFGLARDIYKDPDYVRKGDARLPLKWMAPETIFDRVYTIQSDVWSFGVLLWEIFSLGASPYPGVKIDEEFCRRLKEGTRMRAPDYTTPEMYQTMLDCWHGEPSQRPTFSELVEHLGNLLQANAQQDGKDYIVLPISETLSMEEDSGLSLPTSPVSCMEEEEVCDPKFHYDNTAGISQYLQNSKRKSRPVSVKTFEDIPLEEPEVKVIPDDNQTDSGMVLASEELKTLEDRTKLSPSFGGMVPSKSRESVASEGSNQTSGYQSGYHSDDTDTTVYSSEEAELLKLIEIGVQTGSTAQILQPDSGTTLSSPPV
T2 sequence (P12931 whole entry): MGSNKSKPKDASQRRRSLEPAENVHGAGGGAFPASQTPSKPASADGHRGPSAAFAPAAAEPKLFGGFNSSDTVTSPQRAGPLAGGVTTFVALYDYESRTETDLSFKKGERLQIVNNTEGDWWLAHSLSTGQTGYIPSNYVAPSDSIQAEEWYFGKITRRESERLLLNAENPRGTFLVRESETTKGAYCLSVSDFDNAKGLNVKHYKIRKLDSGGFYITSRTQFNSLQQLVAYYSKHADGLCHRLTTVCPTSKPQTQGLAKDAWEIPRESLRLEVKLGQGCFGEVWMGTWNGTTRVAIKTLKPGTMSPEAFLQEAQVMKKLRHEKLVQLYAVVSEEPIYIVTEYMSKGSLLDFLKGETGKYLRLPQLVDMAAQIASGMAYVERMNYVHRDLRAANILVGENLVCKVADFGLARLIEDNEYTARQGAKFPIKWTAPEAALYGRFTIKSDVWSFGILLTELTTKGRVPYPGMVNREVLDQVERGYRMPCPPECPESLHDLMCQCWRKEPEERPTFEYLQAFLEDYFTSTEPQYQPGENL

On to `Cc1cc(Nc2cc(NC3CCOCC3)nc(-c3cccc(Cl)c3)n2)n[nH]1` [Compound 23, 2-(3-chlorophenyl)-N^4-(5-methyl-1H-pyrazol-3-yl)-N^6-(tetrahydro-2H-pyran-4-yl)pyrimidine-4,6-diamine], for which the IC50 was no more than 100 nM on recombinant Aurora A, no more than 1000 nM in assay [1] (setting [4]), no more than 1000 nM in assay [2] (setting [4]) and 1000 to 10000 nM in the assay on HCT116 cells.
For `Cc1cc(Nc2cc(N3CCN(C)CC3)nc(-c3ccc(F)cc3F)n2)n[nH]1` [Example 172, 2-(2,4-difluorophenyl)-N-(5-methyl-1H-pyrazol-3-yl)-6-(4-methylpiperazin-1-yl)pyrimidin-4-amine], the IC50 is no more than 1000 nM on recombinant Aurora A (setting [4]), no more than 100 nM in assay [1] (40 minutes at room temperature) and no more than 100 nM in assay [2] (40 minutes at room temperature). In addition, the GI50 with HCT116 cells (read-out: GI50 HCT116 cell growth) was no more than 1000 nM.
For `Cc1cc(Nc2cc(N3CCN(C)CC3)nc(-c3ccccc3F)n2)n[nH]1` [Compound 34, 2-(2-fluorophenyl)-N-(5-methyl-1H-pyrazol-3-yl)-6-(4-methylpiperazin-1-yl)pyrimidin-4-amine], the IC50 was no more than 100 nM on recombinant Aurora A, no more than 100 nM in assay [1] (40 minutes at room temperature), no more than 100 nM in assay [2] (40 minutes at room temperature) and 1000 to 10000 nM in the assay on HCT116 cells.
In the case of `COc1ccc(-c2nc(Nc3cc(C)[nH]n3)cc(NC3CCOCC3)n2)cc1` [Compound 28, 2-(4-methoxyphenyl)-N^4-(5-methyl-1H-pyrazol-3-yl)-N^6-(tetrahydro-2H-pyran-4-yl)pyrimidine-4,6-diamine], the IC50 on recombinant Aurora A is no more than 100 nM; in assay [1] (40 minutes at room temperature), no more than 100 nM; in assay [2] (setting [4]) it was no more than 1000 nM; in the assay with HCT116 cells it was 1000 to 10000 nM.
With `Cc1cc(Nc2cc(NC3CCOCC3)nc(-c3cccc(C)c3C)n2)n[nH]1` [Example 180, 2-(2,3-dimethylphenyl)-N^4-(5-methyl-1H-pyrazol-3-yl)-N^6-(tetrahydro-2H-pyran-4-yl)pyrimidine-4,6-diamine], the IC50 at recombinant Aurora A (setting [4]) is no more than 1000 nM; in assay [1] (setting [4]), no more than 1000 nM; in assay [3] it was no more than 100 nM; in assay [2] (40 minutes at room temperature) it was no more than 100 nM.
